Measured values taken from ChEMBL document CHEMBL1146608, “Design and synthesis of pseudo-symmetric HIV protease inhibitors containing a novel hydroxymethylcarbonyl (HMC)-hydrazide isostere” (Bioorg Med Chem Lett, 2003).

Experiments:
MT4 [1] = test: Cytotoxic effect against HIV-IIIB strain in MT-4 cells; type: functional; details: Homo sapiens, read-out: TD50 (the source's name)
MT4 [2] = test: Inhibitory concentration against HIV-IIIB strain in MT-4 cells; type: functional, cell-based; details: Homo sapiens
[3] = Selectivity index expressed as ratio of TD50 to EC50; type: functional
[4] = molecular target: Human immunodeficiency virus type 1 protease (Human immunodeficiency virus 1, UniProt Q72874); test: Inhibitory activity against HIV-1 protease

Compound	CC50 (MT4 [1])	EC50 (MT4 [2])	Therapeutic index [3]	Ki [4]
CSC[C@H](NC(=O)OCc1cccc2cnccc12)C(=O)N[C@@H](Cc1ccccc1)[C@H](O)C(=O)N(Cc1ccccc1)NC(=O)c1cccc(O)c1C	23 nM	0.4 nM	58	0.47 nM
Cc1c(O)cccc1C(=O)N[C@@H](Cc1ccccc1)[C@H](O)C(=O)N(Cc1ccccc1)NC(=O)c1cccc(O)c1C	73 nM	1.1 nM	66	15 nM
Cc1c(O)cccc1C(=O)N[C@@H](Cc1ccccc1)[C@@H](O)C(=O)N(Cc1ccccc1)NC(=O)c1cccc(O)c1C	91 nM	1.6 nM	57	0.16 nM
CSC[C@H](NC(=O)OCc1cccc2cnccc12)C(=O)N[C@@H](Cc1ccccc1)[C@H](O)C(=O)N(Cc1ccccc1)NC(=O)COc1c(C)cccc1C	> 100 nM	1.9 nM	> 53	0.25 nM
Cc1cccc(C)c1OCC(=O)NN(Cc1ccccc1)C(=O)[C@@H](O)[C@H](Cc1ccccc1)NC(=O)c1cccc(O)c1C	12 nM	1.8 nM	6.7	5.8 nM
Cc1cccc(C)c1OCC(=O)N[C@@H](Cc1ccccc1)[C@H](O)C(=O)N(Cc1ccccc1)NC(=O)c1cccc(O)c1C	12 nM	1.1 nM	11	3 nM
Cc1cc(N)cc(C)c1OCC(=O)N[C@@H](Cc1ccccc1)[C@H](O)C(=O)N(Cc1ccccc1)NC(=O)c1cccc(O)c1C	35 nM	0.48 nM	73	5 nM
